Entries after “also recorded” stand apart in the source; their conditions may differ.
What was measured:
mice [1] = assay: Sulprostone-induced tactile hypersensitivity in mice; type: in vivo, mouse; settings: for analgesic activity in sulprostone-induced tactile hypersensitivity: result in words
Description: The activity of a synthetic EP1/EP3 receptor-selective prostaglandin agonist, sulprostone, also was assayed.
Spinal drug injections were performed as follows. […] Briefly, a sterile 30-gauge ½ inch needle attached to a microsyringe was inserted between the L5 and L6 vertebrae. The mouse was held firmly by the pelvic girdle in one hand, while the syringe was held in the other hand at an angle of approximately 20° above the vertebral column. The needle was inserted into the tissue to one side of the L6 spinous process, into the groove between the spinous and transverse processes. The needle angle was decreased to about 10°, and the needle slowly advanced forward into the intervertebral space until a pop was felt and there was a visible serpentine tail movement. Compounds were slowly injected in the subarachnoid space in a volume of 5 μl. Each compound was tested at multiple doses. The minimal efficacious dose was used for all subsequent experiments.
Sensitivity to light touch was quantified by scoring the response of mice to light stroking of their flanks with a small paintbrush, which is not normally painful. […] Statistical calculations of significance for in vivo studies were done using a two-tailed Students t-test.

human α-2C receptor = molecular target: T1, human α-2C receptor (Homo sapiens, UniProt P18825); assay: Inhibition of forskolin-induced cAMP accumulation in PC12 cells expressing human α-2C receptor; type: cell-based; settings: percent efficacy relative to brimonidine
T1 construct: expressed in transfected cells; host or cells: PC12 cells (retroviral vector pCL BABE Puro)
T1 sequence (P18825 1-462): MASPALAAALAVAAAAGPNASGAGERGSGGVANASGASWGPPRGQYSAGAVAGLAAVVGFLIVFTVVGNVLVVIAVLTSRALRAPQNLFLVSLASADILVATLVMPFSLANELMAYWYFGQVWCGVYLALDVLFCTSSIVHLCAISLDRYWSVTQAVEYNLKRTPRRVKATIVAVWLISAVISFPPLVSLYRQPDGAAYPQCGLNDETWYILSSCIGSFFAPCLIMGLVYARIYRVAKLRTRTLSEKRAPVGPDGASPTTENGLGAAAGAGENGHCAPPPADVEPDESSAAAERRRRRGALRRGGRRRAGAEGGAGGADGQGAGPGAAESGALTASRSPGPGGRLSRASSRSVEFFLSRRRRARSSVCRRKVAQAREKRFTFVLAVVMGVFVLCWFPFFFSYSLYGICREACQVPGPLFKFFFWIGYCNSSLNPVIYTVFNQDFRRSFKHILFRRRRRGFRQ
Description: (§1) The human α-2A and α-2C receptor supernatants were added, in varying amounts, to naive PC12 cells, which were then incubated for 48 hours. The transduced cell populations were replated at a lower density and grown in media containing 100 ug/ml puromycin.
(§2) Intracellular cAMP measurement was performed as follows. PC12 cells stably expressing the human α-2A or human α-2C adrenergic receptors were plated in 96-well poly-D-lysine coated plates at a density of 30,000 cells per well in 100 μl DMEM supplemented with 10% horse serum, 5% heat inactivated fetal bovine serum, 1% antibiotic-antimycotic and 100 μg/ml puromycin. Cells were grown overnight at 37° C. and 5% CO2. Cells were dosed by adding an equal volume of media containing IBMX (to a final concentration of 1 mM), forskolin (to a final concentration of 10 μM) and the appropriate drug dilution (to a final concentration of between 10^−5 M and 10^−12 M). After a 10 minute incubation, the media was aspirated and the cells lysed with 200 μl lysis buffer (Amersham Biosciences; Piscataway, N.J.). Plates were stored at −20° C. for up to 24 hours prior to assay. Intracellular cAMP was determined using the Biotrak cAMP enzyme immunoassay system (Amersham Biosciences) according to the manufacturer's instructions. Plates were read on a plate reader at 450 nm.

human α-2A receptor = molecular target: T2, human α-2A receptor (Homo sapiens, UniProt P08913); settings: percent efficacy relative to brimonidine
T2 sequence (P08913 1-465): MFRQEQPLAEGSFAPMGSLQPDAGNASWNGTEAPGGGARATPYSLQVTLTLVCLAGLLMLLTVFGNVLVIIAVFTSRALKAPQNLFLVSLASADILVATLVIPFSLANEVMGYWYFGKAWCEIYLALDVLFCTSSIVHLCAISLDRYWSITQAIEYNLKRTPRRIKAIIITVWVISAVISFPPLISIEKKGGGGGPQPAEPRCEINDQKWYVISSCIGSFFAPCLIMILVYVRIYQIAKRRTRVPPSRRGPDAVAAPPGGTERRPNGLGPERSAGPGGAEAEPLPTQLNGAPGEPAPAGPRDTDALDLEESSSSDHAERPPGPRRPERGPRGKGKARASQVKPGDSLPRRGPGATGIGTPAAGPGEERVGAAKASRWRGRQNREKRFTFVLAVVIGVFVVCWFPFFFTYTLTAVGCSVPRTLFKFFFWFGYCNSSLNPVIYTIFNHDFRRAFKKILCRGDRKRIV
Description: as §1, §2

mice [2] = settings: intraperitoneal dosing, wildtype mice; result in words
Description: The tactile hypersensitivity of 5-6 mice per group was scored every five minutes between 15 and 50 minutes following intraperitoneal dosing. […] In addition, the locomoter activity of 5-6 mice per group was measured in a five minute period 30 minutes following intraperitoneal dosing. The locomoter activity relative to vehicle-treated animals was expressed as a percentage; percentage sedation was calculated as 100% minus the percent locomoter activity.

Compound	analgesic activity in sulprostone-induced tactile hypersensitivity (mice [1]; wildtype mice)	analgesic activity in sulprostone-induced tactile hypersensitivity (mice [1]; α-2A knockout mice)	analgesic activity of clonidine co-administered with prazosin (mice [1]; α-2C knockout mice, prazosin 100 ng/kg i.p., clonidine 400 ng i.t., sulprostone 200 ng i.t.)	analgesic activity in sulprostone-induced tactile hypersensitivity (mice [1]; α-2C knockout mice)	human α2C % E (human α-2C receptor) [%]	human α2A % E (human α-2A receptor) [%]	alleviation of sulprostone-induced tactile hypersensitivity in the absence of sedation (mice [2])
Clc1cccc(Cl)c1N=C1NCCN1 [Clonidine]	analgesic in wildtype mice; also recorded: analgesic in wild type mice	not in α-2A or α-2C knockout mice; also recorded: neither clonidine nor brimonidine were analgesic	restore the analgesic activity	not in α-2A or α-2C knockout mice; also recorded: not in α-2C knockout mice	84	94	–
Brc1c(NC2=NCCN2)ccc2nccnc12 [Brimonidine, 5-bromo-6-(2-imidazolin-2-ylamino)quinoxaline]	analgesic	neither clonidine nor brimonidine were analgesic	–	analgesic	93	91	alleviates sulprostone-induced tactile hypersensitivity in the absence of sedation
